Measured values: the CheMixHub viscosity set
“And” between values parts separate entries of the source, which are not always exact repeats. Equal entries are not always repeated.

Experiments:
[1] = xn = mol fraction of the nth substance listed

Clc1cccc(Cl)c1
viscosity
Conditions	298.15 K	303.15 K	308.15 K	313.15 K	318.15 K
100 kPa	1.017 mPa·s	0.945 mPa·s	0.895 mPa·s and 0.906 mPa·s	0.849 mPa·s	0.799 mPa·s and 0.809 mPa·s
101 kPa	–	0.949 mPa·s and 0.945 mPa·s	0.895 mPa·s and 0.895 mPa·s	0.849 mPa·s	0.799 mPa·s

[O-][Cl+3]([O-])([O-])O[Cl+3]([O-])([O-])[O-]
Conditions	viscosity [mPa·s]
293.15 K, 101.33 kPa	0.698

COCCOCC[n+]1ccn(CCC#N)c1.O=S(=O)([N-]S(=O)(=O)C(F)(F)F)C(F)(F)F
101.33 kPa
Conditions	viscosity [mPa·s]
293.15 K	296.5
303.15 K	169
313.15 K	103.2
323.15 K	74.62

CCCCCCCCn1cc[n+](C)c1.[Cl-]
101 kPa
Conditions	viscosity [mPa·s]
313.15 K	4062
323.15 K	2043

CC(=O)N(C(C)C)C(C)C
Conditions	viscosity [mPa·s]
298.16 K, 101 kPa	2.18

CCCCCCC(=O)O
Conditions	viscosity [mPa·s]
298.15 K, 101 kPa	3.784

COc1ccc(C=O)cc1
101 kPa
Conditions	viscosity
303.15 K	3.251 mPa·s and 3.578 mPa·s and 3.251 mPa·s
308.15 K	3.131 mPa·s and 3.035 mPa·s and 3.131 mPa·s
313.15 K	2.961 mPa·s and 2.649 mPa·s and 2.961 mPa·s
318.15 K	2.682 mPa·s and 2.34 mPa·s and 2.682 mPa·s

CCOC(C)=O
Conditions	viscosity
296 K, 101.3 kPa	0.437 mPa·s
298 K, 101.3 kPa	0.439 mPa·s and 0.439 mPa·s
298.15 K, 100 kPa	0.42 mPa·s and 0.42 mPa·s
298.15 K, 101.3 kPa	0.4407 mPa·s (2×) and 0.439 mPa·s
298.15 K, 101.33 kPa	0.457 mPa·s and 0.424 mPa·s and 0.424 mPa·s
303.15 K, 101.3 kPa	0.4178 mPa·s and 0.4178 mPa·s
308.15 K, 101.3 kPa	0.3972 mPa·s and 0.3972 mPa·s
313.15 K, 101.3 kPa	0.376 mPa·s and 0.376 mPa·s
313.15 K, 101.32 kPa	0.369 mPa·s
313.15 K, 101.33 kPa	0.368 mPa·s
318 K, 101.3 kPa	0.3829 mPa·s
318 K, 101.33 kPa	0.3829 mPa·s
318.15 K, 101.3 kPa	0.358 mPa·s
318.15 K, 101.33 kPa	0.35 mPa·s
323.15 K, 100 kPa	0.3053 mPa·s
323.15 K, 101 kPa	0.341 mPa·s and 0.327 mPa·s and 0.3356 mPa·s
323.15 K, 101.3 kPa	0.3407 mPa·s and 0.3407 mPa·s

CCCCCCCCCCCC(=O)OC
100 kPa
Conditions	viscosity
293.15 K	3.12 mPa·s and 3.128 mPa·s
298.15 K	2.778 mPa·s
303.15 K	2.491 mPa·s
308.15 K	2.25 mPa·s
318.15 K	1.877 mPa·s
323.15 K	1.712 mPa·s and 1.717 mPa·s

CS(=O)(=O)[O-].C[N+](C)(CCO)CCO
101.33 kPa
Conditions	viscosity [mPa·s]
298.15 K	1495
303.15 K	1021
308.15 K	716.3
313.15 K	513.1
318.15 K	377.6
323.15 K	282.4

CCCCCCCCCCCCBr
101 kPa
Conditions	viscosity [mPa·s]
298.08 K	3.373
303.1 K	3.024
308.11 K	2.689
313.11 K	2.437

COC(=O)CC(C)=O
101.3 kPa
Conditions	viscosity
298.15 K	1.566 mPa·s and 1.564 mPa·s and 1.564 mPa·s
303.15 K	1.422 mPa·s and 1.421 mPa·s and 1.421 mPa·s
308.15 K	1.298 mPa·s and 1.298 mPa·s

CCCCCC[n+]1ccn(C)c1.O=S(=O)([O-])C(F)(F)F
100 kPa
Conditions	viscosity [mPa·s]
293.15 K	194.9
298.15 K	150.8
303.15 K	115.7
308.15 K	91.13
313.15 K	74.03

CCCCCC[N+](CC)(CC)CC.O=S(=O)([N-]S(=O)(=O)C(F)(F)F)C(F)(F)F
100 kPa
Conditions	viscosity [mPa·s]
293.15 K	241.4
313.15 K	80.71

CC[NH+](CC)CC.O=S(=O)([O-])O
101 kPa
Conditions	viscosity
303.15 K	153 mPa·s and 153 mPa·s
308.15 K	138 mPa·s and 138 mPa·s
313.15 K	108 mPa·s

CCOc1ccccc1
viscosity
Conditions	101 kPa	101.3 kPa	101.33 kPa
293.15 K	1.222 mPa·s and 1.27 mPa·s	1.366 mPa·s	1.231 mPa·s
293.35 K	1.24 mPa·s	–	–
298 K	–	–	1.164 mPa·s
302.75 K	1.03 mPa·s	–	–
303 K	–	–	1.068 mPa·s
303.15 K	1.038 mPa·s and 1.05 mPa·s	–	1.036 mPa·s
308 K	–	–	0.983 mPa·s
308.15 K	0.978 mPa·s	0.9842 mPa·s	–
313.15 K	0.901 mPa·s and 0.875 mPa·s	–	0.894 mPa·s
318.15 K	0.839 mPa·s	0.8284 mPa·s	–
323.15 K	0.782 mPa·s	–	–

OCC(O)CO
Conditions	viscosity
293.15 K, 100 kPa	1360 mPa·s
294 K, 101 kPa	1390 mPa·s
298 K, 101 kPa	946.5 mPa·s
298.15 K, 100 kPa	860 mPa·s
298.15 K, 101.33 kPa	803.7 mPa·s
303 K, 101 kPa	611.3 mPa·s and 409.6 mPa·s
303.15 K, 100 kPa	542 mPa·s
308 K, 101 kPa	413.9 mPa·s
308.15 K, 101 kPa	405.8 mPa·s
308.15 K, 101.33 kPa	351.5 mPa·s
313 K, 101 kPa	285.5 mPa·s
313.15 K, 100 kPa	217 mPa·s
313.15 K, 101 kPa	231 mPa·s and 284 mPa·s and 289.4 mPa·s
318 K, 101 kPa	213.7 mPa·s
318.15 K, 101 kPa	182.5 mPa·s and 176.2 mPa·s
318.15 K, 101.33 kPa	157.1 mPa·s
323 K, 101 kPa	141 mPa·s
323.15 K, 101 kPa	142 mPa·s and 153.8 mPa·s

CCCCCCCCCCCC(=O)OC + CCCCCCCCCCCC
viscosity [mPa·s], [1], 100 kPa
Conditions	x2 = 0.0991	x2 = 0.2004	x2 = 0.3006	x2 = 0.3991	x2 = 0.5003	x2 = 0.6	x2 = 0.6997	x2 = 0.8005	x2 = 0.8995
293.15 K	2.863	2.631	2.435	2.242	2.09	1.931	1.789	1.671	1.564
298.15 K	2.554	2.356	2.185	2.009	1.883	1.749	1.624	1.514	1.425
303.15 K	2.296	2.126	1.975	1.83	1.71	1.595	1.485	1.391	1.308
308.15 K	2.081	1.93	1.797	1.671	1.563	1.461	1.363	1.28	1.205
313.15 K	1.896	1.763	1.644	1.526	1.436	1.344	1.257	1.183	1.116
318.15 K	1.735	1.616	1.511	1.402	1.318	1.243	1.164	1.098	1.037
323.15 K	1.594	1.489	1.395	1.299	1.223	1.153	1.082	1.022	0.967

OCC(O)CO + CCCCO
viscosity [mPa·s], [1], 101.33 kPa
Conditions	x1 = 0.1003	x1 = 0.1997	x1 = 0.3003	x1 = 0.4007	x1 = 0.4996	x1 = 0.5995	x1 = 0.6994	x1 = 0.8004	x1 = 0.8999
298.15 K	4.05	6.403	10.09	18.38	37.92	83.21	180.7	338.3	541.7
308.15 K	3.014	4.518	6.896	11.9	21.63	44.15	82.38	144.5	231.5
318.15 K	2.324	3.356	4.9	8.136	13.77	24.56	41.13	68.13	105.3
